Laboratory results reported in patent US6362206B1, “Azole compounds, their production and use” (Takeda Chemical Industries, Ltd., priority 1995, dated 2002).

How the values were obtained:
Candida albicans TA = assay: Protective effect against Candida albicans infection in mice (oral, ED50 from survival rate); type: in vivo; settings: Crj: CDF1 mice inoculated i.v. with minimum lethal dose of Candida albicans TA, single oral dose immediately after infection as 30% HPCD solution, Reed and Muench method from survival rate 7 days after infection; for ED50: 168 h
Procedure: Test Method: Five-week-old Crj: CDF1 mice were inoculated with the minimum lethal dose of Candida albicans TA intravenously. The test compounds were administered orally once immediately after infection as a 30% HPCD (hydroxypropyl-β-cyclodextrin) solution. The activity was expressed in terms of ED50 value calculated by the Reed and Muench method from the survival rate 7 days after infection.

Row | Compound | ED50 (mg/kg) PO (Candida albicans TA) | melting point | ED50 (Candida albicans TA)
1 | 1-[(1R,2R)-2-(2,4-difluorophenyl)-2-hydroxy-1-methyl-3-(1H-1,2,4-triazol-17 yl)propyl]-3-[4-(1H-1,2,4-triazol-1-yl)phenyl]-2-imidazolidinone [Compound 10] | 0.32 mg/kg | – | –
2 | 1-[(1R,2R)-2-(2,4-difluorophenyloy)-2-hydroxy-1-methyl-3-(1H-1,2,4-triazol-1-yl)propyl]-3-[4-(2H-1,2,3-triazol-2-yl)phenyl]-2-imidazolidinone [Compound 14] | 0.32 mg/kg | – | –
3 | 1-[(1R,2R)-2-(2-fluorophenyl)-2:-hydroxy-1-methyl-3-(1H-1,2,4-triazol-1-yl)propyl]-3-[4-(1H-1-tetrazolyl)phenyl]-2(1H,3H)-imidazolone [Compound 44] | 0.39 mg/kg | – | –
4 | 1-[((1R,2R)-2-(2,4-difluorophenyl)-2-hydroxy-1-methyl-3-(1H-1,2,4-triazol-1-yl)propyl]-3-[4-(1H-1,2,4-triazol-1-yl)phenyl]-2(1H,3H)-imidazolone [Compound 9] | 0.16 mg/kg | – | –
5 | C[C@@H](n1ncn(-c2ccc(-n3cncn3)cc2)c1=O)[C@](O)(Cn1cncn1)c1ccc(F)cc1F [Compound 5, 2-[(1R,2R)-2-(2,4-difluorophenyl)-2-hydroxy-1-methyl-3-(1H-1,2,4-triazol-1-yl)propyl]-4-[4-(1H-1,2,4-triazol-1-yl)phenyl]-3(2H,4H)-1,2,4-triazolone] | – | 182 to 184 °C | 0.22 mg/kg
6 | C[C@@H](n1ncn(-c2ccc(-n3ccnn3)cc2)c1=O)[C@](O)(Cn1cncn1)c1ccc(F)cc1F [Compound 6, 2-[(1R,2R)-2-(2,4-difluorophenyl)-2-hydroxy-1-methyl-3-(1H-1,2,4-triazol-1-yl)propyl]-4-[4-(1H-1,2,3-triazol-1-yl)phenyl]-3(2H,4H)-1,2,4-triazolone] | – | 219 to 220 °C | 0.35 mg/kg
7 | C[C@@H](n1ncn(-c2ccc(-n3nccn3)cc2)c1=O)[C@](O)(Cn1cncn1)c1ccc(F)cc1F [Compound 7, 2-[(1R,2R)-2-(2,4-difluorophenyl)-2-hydroxy-1-methyl-3-(1H-1,2,4-triazol-1-yl)propyl]-4-(4-(2H-1,2,3-triazol-2-yl)phenyl]-3(2H,4H)-1,2,4-triazolone] | – | 213 to 215 °C | 0.096 mg/kg
8 | C[C@@H](n1ccn(-c2ccc(-n3ccnn3)cc2)c1=O)[C@](O)(Cn1cncn1)c1ccc(F)cc1F [Compound 11, 1-[(1R,2R)-2-(2,4-difluorophenyl)-2-hydroxy-1-methyl-3-(1H-1,2,4-triazol-1-yl)propyl]-3-[4-(1H-1,2,3-triazol-1-yl)phenyl]-2(1H,3H)-imidazolone] | – | 178 to 181 °C | 0.45 mg/kg
9 | C[C@@H](N1CCN(c2ccc(-n3ccnn3)cc2)C1=O)[C@](O)(Cn1cncn1)c1ccc(F)cc1F [Compound 12, 1-[(1R,2R)-2-(2,4-difluorophenyl)-2-hydroxy-1-methyl-3-(1H-1,2,4-triazol-1-yl)propyl]-3-[4-(1H-1,2,3-triazol-1-yl)phenyl]-2-imidazolidinone] | – | – | 0.71 mg/kg
10 | C[C@@H](n1ccn(-c2ccc(-n3nccn3)cc2)c1=O)[C@](O)(Cn1cncn1)c1ccc(F)cc1F [Compound 13, 1-[(1R,2R)-2-(2,4-difluorophenyl)-2-hydroxy-1-methyl-3-(1H-1,2,4-triazol-1-yl)propyl]-3-[4-(2H-1,2,3-triazol-2-yl)phenyl]-2(1H,3H)-imidazolone] | – | 182 to 185 °C | 0.18 mg/kg
11 | C[C@@H](n1ncn(-c2ccc(-n3cccn3)cc2)c1=O)[C@](O)(Cn1cncn1)c1ccc(F)cc1F [Compound 19, 2-[(1R,2R)-2-(2,4-difluorophenyl)-2-hydroxy-1-methyl-3-(1H-1,2,4-triazol-1-yl)propyl]-4-[4-(1H-1-pyrazolyl)phenyl]-3(2H,4H)-1,2,4-triazolone] | – | – | 0.39 mg/kg
12 | C[C@@H](n1ncn(-c2ccc(-n3ncnn3)cc2)c1=O)[C@](O)(Cn1cncn1)c1ccc(F)cc1F [Compound 25, 2-[(1R,2R)-2-(2,4-difluorophenyl)-2-hydroxy-1-methyl-3-(1H-1,2,4-triazol-1-yl)propyl]-4-[4-(2H-2-tetrazolyl)phenyl]-3(2H,4H)-1,2,4-triazolone] | – | – | 0.088 mg/kg
13 | C[C@@H](n1ccn(-c2ccc(-n3ncnn3)cc2)c1=O)[C@](O)(Cn1cncn1)c1ccc(F)cc1F [Compound 26, 1-[(1R,2R)-2-(2,4-difluorophenyl)-2-hydroxy-1-methyl-3-(1H-1,2,4-triazol-1-yl)propyl]-3-[4-(2H-2-tetrazolyl)phenyl]-2(1H,3H)-imidazolone] | – | – | 0.16 mg/kg
14 | C[C@@H](N1CCN(c2ccc(-n3ncnn3)cc2)C1=O)[C@](O)(Cn1cncn1)c1ccc(F)cc1F [Compound 27, 1-[(1R,2R)-2-(2,4-difluorophenyl)-2-hydroxy-1-methyl-3-(1H-1,2,4-triazol-1-yl)propyl]-3-[4-(2H-2-tetrazolyl)phenyl]-2-imidazolidinone] | – | – | 0.18 mg/kg
15 | C[C@@H](N1CCN(c2ccc(-n3ccnn3)cc2)C1=O)[C@](O)(Cn1cncn1)c1ccccc1F [Compound 34, [(1R,2R)-2-(2-fluorophenyl)-2-hydroxy-1-methyl-3-(1H-1,2,4-triazol-1-yl)propyl]-3-[4-(1H-1,2,3-triazol-1-yl)phenyl]-2-imidazolidinone] | – | – | 0.8 mg/kg
16 | C[C@@H](N1CCN(c2ccc(-n3nccn3)cc2)C1=O)[C@](O)(Cn1cncn1)c1ccccc1F [Compound 35, 1-[(1R,2R)-2-(2-fluorophenyl)-2-hydroxy-1-methyl-3-(1H-1,2,4-triazol-1-yl)propyl]-3-[4-(2H-1,2,3-triazol-2-yl)phenyl]-2-imidazolidinone] | – | 178 to 179 °C | 0.71 mg/kg
17 | C[C@@H](n1ccn(-c2ccc(-n3cncn3)cc2)c1=O)[C@](O)(Cn1cncn1)c1ccccc1F [Compound 38, 1-[(1R,2R)-2-(2-fluorophenyl)-2-hydroxy-1-methyl-3-(1H-1,2,4-triazol-1-yl)propyl]-3-[4-[1H-1,2,4-triazol-1-yl)phenyl]-2(1H,3H)-imidazolone] | – | – | 0.5 mg/kg
18 | C[C@@H](N1CCN(c2ccc(-n3cncn3)cc2)C1=O)[C@](O)(Cn1cncn1)c1ccccc1F [Compound 39, 1-[(1R,2R)-2-(2-fluorophenyl)-2-hydroxy-1-methyl-3-(1H-1,2,4-triazol-1-yl)propyl]-3-[4-(1H-1,2,4-triazol-1-yl)phenyl]-2-imidazolidinone] | – | – | 0.5 mg/kg
19 | C[C@@H](n1ccn(-c2ccc(-n3ncnn3)cc2)c1=O)[C@](O)(Cn1cncn1)c1ccccc1F [Compound 40, 1-[(1R,2R)-2-(2-fluorophenyl)-2-hydroxy-1-methyl-3-(1H-1,2,4-triazol-1-yl)propyl]-3-[4-(2H-2-tetrazolyl)phenyl]-2(1H,3H)-imidazolone] | – | – | 0.35 mg/kg
20 | C[C@@H](N1CCN(c2ccc(-n3ncnn3)cc2)C1=O)[C@](O)(Cn1cncn1)c1ccccc1F [Compound 41, 1-[(1R,2R)-2-(2-fluorophenyl)-2-hydroxy-1-methyl-3-(1H-1,2,4-triazol-1-yl)propyl]-3-[4-(2H-2-tetrazolyl)phenyl]-2-imidazolidinone] | – | – | 0.8 mg/kg
21 | C[C@@H](n1ccn(-c2ccc(-n3cnnn3)cc2)c1=O)[C@](O)(Cn1cncn1)c1ccc(F)cc1F [Compound 42, 1-[(1R,2R)-2-(2,4-difluorophenyl)-2-hydroxy-1-methyl-3-(1H-1,2,4-triazol-1-yl)propyl]-3-[4-(1H-1-tetrazolyl)phenyl]-2(1H,3H)-imidazolone] | – | – | 0.22 mg/kg
22 | C[C@@H](N1CCN(c2ccc(-n3cnnn3)cc2)C1=O)[C@](O)(Cn1cncn1)c1ccc(F)cc1F [Compound 43, 1-[(1R,2R)-2-(2,4— difluorophenyl)-2-hydroxy-1-methyl-3-(1H-1,2,4-triazol-1-yl)propyl]-3-[4-(1H-1-tetrazolyl)phenyl]-2-imidazolidinone] | – | – | 0.89 mg/kg
23 | C[C@@H](N1CCN(c2ccc(-n3cnnn3)cc2)C1=O)[C@](O)(Cn1cncn1)c1ccccc1F [Compound 45, 1-[(1R,2R)-2-(2-fluorophenyl)-2-hydroxy-1-methyl-3-(1H-1,2,4-triazol-1-yl)propyl]-3-[4-(1H-1-tetrazolyl)phenyl]-2-imidazolidinone] | – | – | 0.45 mg/kg
